Target: T1, quinol:fumarate reductase (QFR), site in subunit A (FAD-binding protein) (Megalodesulfovibrio gigas, UniProt T2GB49)
T1 construct: gene fdrA; native, purified from D. gigas membranes in DDM; A2B2C2 homo-dimer; subunit A 627 residues (1-622 built), B 264, C 218; with Fumarate reductase iron-sulfur subunit; Fumarate reductase cytochrome b subunit
T1 sequence (T2GB49 1-627): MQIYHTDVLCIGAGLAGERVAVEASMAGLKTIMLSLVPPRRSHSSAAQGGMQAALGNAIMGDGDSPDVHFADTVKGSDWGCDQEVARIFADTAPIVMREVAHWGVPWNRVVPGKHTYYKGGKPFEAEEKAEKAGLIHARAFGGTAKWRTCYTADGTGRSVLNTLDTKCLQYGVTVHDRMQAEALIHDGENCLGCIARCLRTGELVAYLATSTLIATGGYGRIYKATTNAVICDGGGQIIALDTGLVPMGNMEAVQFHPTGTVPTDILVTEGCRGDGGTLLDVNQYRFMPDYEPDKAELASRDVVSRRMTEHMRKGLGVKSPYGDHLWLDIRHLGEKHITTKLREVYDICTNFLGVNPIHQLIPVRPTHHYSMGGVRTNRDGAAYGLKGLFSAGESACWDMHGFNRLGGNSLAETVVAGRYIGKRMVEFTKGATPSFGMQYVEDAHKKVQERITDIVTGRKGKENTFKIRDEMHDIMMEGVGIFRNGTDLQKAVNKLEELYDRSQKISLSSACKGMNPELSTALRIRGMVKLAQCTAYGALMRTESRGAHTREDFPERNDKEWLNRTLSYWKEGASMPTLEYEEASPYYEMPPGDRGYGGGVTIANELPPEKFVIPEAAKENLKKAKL
T1 sequence (T2G9X8 1-264 partner): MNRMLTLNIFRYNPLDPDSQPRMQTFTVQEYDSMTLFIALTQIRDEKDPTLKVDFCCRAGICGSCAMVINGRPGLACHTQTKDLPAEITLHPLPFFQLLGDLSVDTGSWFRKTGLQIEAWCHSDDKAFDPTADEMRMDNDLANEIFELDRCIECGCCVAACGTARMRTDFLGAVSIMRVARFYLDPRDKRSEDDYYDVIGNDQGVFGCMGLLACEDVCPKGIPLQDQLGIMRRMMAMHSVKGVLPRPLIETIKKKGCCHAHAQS
T1 sequence (T2GAT5 1-218 partner): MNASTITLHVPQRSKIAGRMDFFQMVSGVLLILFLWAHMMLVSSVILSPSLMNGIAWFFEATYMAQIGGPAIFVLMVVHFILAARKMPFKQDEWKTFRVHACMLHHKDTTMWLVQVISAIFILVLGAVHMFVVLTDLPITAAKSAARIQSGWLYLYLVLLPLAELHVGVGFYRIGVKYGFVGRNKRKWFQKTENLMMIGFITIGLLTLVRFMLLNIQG
Experiment: X-ray crystal structure, […] Å
Settings: crystals at pH 8.5

Compound	X-ray crystal structure, 3.6 Å (covalent, C8M methyl of flavin to His-A43)	X-ray crystal structure, 3.6 Å (fumarate site near the FAD in subunit A)
Cc1cc2nc3c(=O)[nH]c(=O)nc-3n(C[C@H](O)[C@H](O)[C@H](O)COP(=O)(O)OP(=O)(O)OC[C@H]3O[C@@H](n4cnc5c(N)ncnc54)[C@H](O)[C@@H]3O)c2cc1C [FAD, flavin adenine dinucleotide]	FAD binds to the FAD-binding domain through a covalent bond with residue His-A43	
O=C(O)/C=C/C(=O)O [fumarate]		A fumarate molecule is also observed near the FAD in the A subunit
